The results in this text go back to patent US4056626A, “Pharmaceutical composition containing benzofuran derivative” (Kakenyaku Kako Co., Ltd., priority 1971, dated 1977).

The test system of one data set is cardiac arrhythmias. The data set is described as follows: clinical study of cardiac arrhythmias. It is filed as in vivo, patients. More on the design: key to Treatment evaluation: Extremely effective (++): An outstanding improvement of subjective symptom and an outstanding improvement in electrocardiogram were observed.; Effective (+): Therapeutic effects were clearly observed.; Slightly effective (±): Subjective symptom was fairly decreased and some improvement in electrocardiogram was observed.; Non-effective (-): Any therapeutic effect was not observed. The settings on record: oral 30 to 60 mg./day, 10 days to 12 weeks. On the procedure: The active ingredient, 2-acetyl-7-(2-hydroxy-3-isopropylaminopropoxy)benzofuran hydrochloride, contained in the capsules obtained in Example 47 was administrered orally in a dose of 30 to 60 mg./day for a period of 10 days to 12 weeks. The treatment evaluation was determined according to the following standard: […]

For another data set, the system named is angina pectoris. The data set is described as follows: clinical study of angina pectoris. More on the design: key: Extremely effective (++): An outstanding improvement of subjective symptom and an outstanding improvement in electrocardiogram were observed.; Effective (+): Therapeutic effects were clearly observed.; Slightly effective (±): Subjective symptom was fairly decreased and some improvement in electrocardiogram was observed.; Non-effective (-): Any therapeutic effect was not observed. As to conditions: oral 15 to 60 mg./day, 1 to 10 weeks, per patient, hydrochloride. It is filed as in vivo, patients. The protocol: A clinical study relating to angina pectoris was made covering the patients shown in Table V. The active ingredient, 2-acetyl-7-(2-hydroxy-3-isopropylaminopropoxy)benzofuran hydrochloride, contained in the capsules obtained in Example 47 was administered orally in a dose of 15 to 60 mg./day for a period of 1 to 10 weeks.

The test system of a further data set is hypertension. The data set is described as follows: clinical study of hypertension. It is filed as in vivo. As to conditions: four hypertensive patients; oral 60 mg./day, 30 days. The text has this: To a patient of 68 age who was diagnosed as an essential hypertension was orally administered the active ingredient, 2-acetyl-7-(2-hydroxy-3-isopropyl aminopropoxy)benzofuran hydrochloride, […] As a result, the maximum blood pressure of 210 mmHg and the minimum blood pressure of 88 mmHg before treatment were decreased to 176 mmHg and 76 mmHg after treatment, respectively.

Data set [1] relates to tachycardia in hyperthyroidism. The data set is described as follows: clinical study: tachycardia in hyperthyroidism, single administration. It is filed as in vivo, patients. As to conditions: 14 days; for Pulse rate after treatment, average / Pulse rate difference, average: 12 patients; for Pulse rate after treatment, average / Pulse rate difference / Pulse rate after treatment: in beats/min (unit assumed); for Pulse rate difference: before minus after. On the procedure: A. A therapeutic effect of the present pharmaceutical composition to tachycardia in hyperthyroidism in case of its signle administration was investigated.
To 12 patients of hyperthyroidism shown in Table VI was orally administered the active ingredient, 2-acetyl-7-(2-hydroxy-3-isopropylaminopropoxy)benzofuran hydrochloride, contained in the capsules obtained in Example 47 in a dose of 30 mg./day (3 times per day) for 14 days. The treatment evaluation was determined according to the following standard:
For reference, a therapeutic effect of an antihyperthyroidism medicament to tachycardia in hyperthyroidism in case of its single administration was investigated.
To 12 patients of hyperthyroidism shown in Table VII was orally administered Mercazol which has been widely employed as an antihyperthyroidism medicament in a dose of 30 mg./day for 14 days.

Data set [2] has as its system tachycardia in hyperthyroidism. Description: clinical study: tachycardia in hyperthyroidism, combination with antihyperthyroidism medicament. In kind it is in vivo, patients. As to conditions: in combination with Mercazol, 14 days, per patient. The protocol: (B) A therapeutic effect of the present pharmaceutical composition in combination with an antihyperthyroidism medicament to tachycardia in hyperthyroidism was investigated.
To six patients of hyperthyroidism shown in Table VIII were orally administered the active ingredient, 2-acetyl-7-(2-hydroxy-3-isopropylaminopropoxy)benzofuran hydrochloride, contained in the capsules obtained in Example 47 and Mercazol in each dose of 30 mg./day (three times per day) for 14 days.

[3] abbreviates: one value per patient, hydrochloride.
Setting [4] is: hyperthyroidism, oral 30 mg./day (3 times per day), per patient, hydrochloride.
Where [5] appears, read: Mercazol reference, oral 30 mg./day, per patient.

Several values for one entry are separate records, joined by “and”; a condition that tells them apart may be missing. Equal values may be shown once. Entries after “also recorded” stand apart in the source; their conditions may differ.

On to `CC(=O)c1cc2cccc(OCC(O)CNC(C)C)c2o1.Cl` (centres unmarked) [2-acetyl-7-(2-hydroxy-3-isopropylaminopropoxy)benzofuran hydrochloride], for which the Treatment evaluation result is “+ and ± and - and ++” with cardiac arrhythmias (cardiac arrhythmias, per patient, hydrochloride); “± and + and - and ++” in the data set with angina pectoris; “++ (Extremely effective (++): The pulse rate before treatment was decreased in a difference of not less than 20 after treatment.); also recorded: + (Effective (+): The pulse rate before treatment was decreased in a difference of 10 to 19 after treatment.)” in data set [1] (setting [4]); “+ (Effective (+): The pulse rate before treatment was decreased in a difference of 10 to 19 after treatment.); also recorded: ++ (Extremely effective (++): The pulse rate before treatment was decreased in a difference of not less than 20 after treatment.)” in data set [2] (each oral 30 mg./day, hydrochloride). In the data set on cardiac arrhythmias (setting [3]), the “Blood pressure after treatment (first figure, systolic)” value was 96 mmHg and 114 mmHg and 104 mmHg and 130 mmHg and 145 mmHg and 154 mmHg and 165 mmHg and 125 mmHg and 108 mmHg and 135 mmHg and 118 mmHg. The “Blood pressure after treatment (second figure, diastolic)” value with cardiac arrhythmias (setting [3]) is 66 mmHg and 70 mmHg and 62 mmHg and 78 mmHg and 110 mmHg and 75 mmHg and 80 mmHg and 68 mmHg. For the same compound, the “Heart rate/min. after treatment” value with cardiac arrhythmias (setting [3]) is 60 min⁻¹ and 82 min⁻¹ and 68 min⁻¹ and 72 min⁻¹ and 76 min⁻¹ and 64 min⁻¹ and 100 min⁻¹. The Side effect result is recorded as “No” in the data set with cardiac arrhythmias (per patient); “No” in data set [1] (hyperthyroidism, oral 30 mg./day (3 times per day), per patient); “No” in data set [2] (each oral 30 mg./day). Also, the good therapeutic results with hypertension is on record as “three patients among four, good therapeutic results were obtained”. Also, the “Pulse rate after treatment, average” value in data set [1] (oral 30 mg./day, average before treatment 114.5, standard deviation 11.6) is listed as 90.4. In addition, in data set [1] (oral 30 mg./day, standard deviation printed 1.1), the Pulse rate difference, average was 23.8 beats/min. Also, the Pulse rate difference in data set [1] (oral 30 mg./day (3 times per day), per patient, hydrochloride) was 22 and 32 and 14 and 30 and 51 and 28 and 24 and 20 and 8 and 16. The “Pulse rate after treatment” value in data set [1] (setting [4]) is 80 and 108 and 88 and 100 and 77 and 76 and 84; in data set [2] (each oral 30 mg./day (three times per day), hydrochloride, in beats/min (unit assumed)) it was 88 and 76 and 78 and 68 and 82.

On to `Cn1cc[nH]c1=S` [Mercazol, reference compound], for which the “Pulse rate after treatment, average” value in data set [1] (Mercazol reference, oral 30 mg./day, average before treatment 111.3, standard deviation 8.6) amounted to 100.2. This compound registered a Pulse rate difference, average in data set [1] (Mercazol reference, oral 30 mg./day, standard deviation printed 0.6) of 12 beats/min. Moreover, in data set [1] (setting [5]), the Pulse rate difference was 20 and 22 and 10 and 14 and 12 and 4 and 0; the “Pulse rate after treatment” value was 90 and 110 and 100 and 108 and 116.
